In paper PMC9088311, “Cyclic Thiosulfonates for Thiol-Mediated Uptake: Cascade Exchangers, Transporters, Inhibitors” (JACS Au, 2022):
Values after ≈ are worked out from the molar mass of the structure shown. Read-outs that look alike come from different tables or passages of the source.

Tests used:
[1] = test system: HK cells, transporter 28; assay: HCHT imaging: inhibition of cytosolic delivery of CTO transporter 28; format: cell-based, Human; settings: inhibitor 1 h; for IC15 / IC50: Homo sapiens; for IC15: read-out: MIC (concentration needed to reach 15% inhibition), transporter 28 5 μM
[2] = test system: HK cells, transporter 31; assay: HCHT imaging: inhibition of cytosolic delivery of ETP transporter 31; format: cell-based, Human; settings: inhibitor 1 h; for IC15: read-out: MIC (concentration needed to reach 15% inhibition), transporter 31 10 μM
Method in brief: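 HeLa Kyoto cells grown 24 h in FluoroBrite DMEM + 10% FBS on 96-well black plates were exposed to serially diluted inhibitors for 1 h at 37 °C, then given fluorescent transporter 31 at 10 μM for 30 min, either after washing the inhibitor out (pre-incubation) or with it still present (co-incubation). Cytosolic delivery was then scored by automated HCHT live-cell imaging with Hoechst 33342 and PI staining.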

[3] = test system: HeLa Kyoto cells; assay: Relative viability (HOE/PI) in HCHT screening
Method in brief: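 HK cells exposed to increasing inhibitor concentrations, then fluorescent transporters at constant concentration, either after inhibitor removal (pre-incubation) or without removal (co-incubation).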

[4] = test system: trypsin; assay: Trypsin inhibition (preliminary, not shown); format: biochemical; settings: 50 μM; preliminary results
[5] = biological target: cathepsin L (Homo sapiens, UniProt P07711); assay: Cathepsin L inhibition (preliminary, not shown); format: biochemical; settings: 50 μM; preliminary results
[6] = biological target: cathepsin B (Homo sapiens, UniProt P07858); assay: Cathepsin B inhibition (preliminary, not shown); format: biochemical; settings: 50 μM; preliminary results
[7] = test system: HK cells, transporter 31; settings: transporter 31 10 μM, pre-incubation (P), cited from earlier work; for IC50: read-out: IC50 (concentration needed to reach 50% inhibition)
[8] = in vitro; settings: human
[9] = test system: HeLa Kyoto cells; settings: with transporter 31; pre-incubation (P); cited from earlier work
[10] = read-out: IC50 (concentration needed to reach 50% inhibition), transporter 28 5 μM, pre-incubation (P)
[11] = Homo sapiens, 1 h, read-out: IC50 (concentration needed to reach 50% inhibition), transporter 31 10 μM, co-incubation (C)
[12] = Homo sapiens, 1 h, co-incubation (C)
[13] = transporter 31 10 μM, co-incubation (C)
[14] = with transporter 28, pre-incubation (P)
[15] = with transporter 31, co-incubation (C)
[16] = transporter 28 5 μM, co-incubation (C)
[17] = with transporter 28, co-incubation (C)

cathepsin L, sequence (P07711 114-333, species assumed): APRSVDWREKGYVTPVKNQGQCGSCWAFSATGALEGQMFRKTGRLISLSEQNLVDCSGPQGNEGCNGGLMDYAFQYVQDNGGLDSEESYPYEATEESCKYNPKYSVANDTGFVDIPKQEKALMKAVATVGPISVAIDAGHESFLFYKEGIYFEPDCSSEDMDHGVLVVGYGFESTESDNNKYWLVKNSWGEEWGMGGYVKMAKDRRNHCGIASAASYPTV

SMILES	IC15 ([1]; 1 h, pre-incubation (P)) [µM]	IC50 [1, 10] [µM]	IC50 [2, 11] [µM]	IC15 [2, 12] [µM]	MIC (concentration needed to reach 15% inhibition) [2, 13] [µM]	RV50 (concentration needed to lower relative viability by 50%) [3, 14] [µM]	RV50 (concentration needed to lower relative viability by 50%) [3, 15] [µM]	inhibition of trypsin (in words) [4]	inhibition of cathepsin L (in words) [5]	inhibition of cathepsin B (in words) [6]	IC50 [7] [µM]	MIC (concentration needed to reach 15% inhibition) [7] [µM]	viability at 7 h, 50 µM [8] [%]	RV50 (concentration needed to lower relative viability by 50%) [9] [µM]	IC15 ([1]; 1 h, co-incubation (C)) [µM]	MIC (concentration needed to reach 15% inhibition) [1, 16] [µM]	RV50 (concentration needed to lower relative viability by 50%) [3, 17] [µM]	further results
O=S1(=O)C[C@H](O)[C@H](O)CS1 (stereo in doubt) [Compound 3, (4S,5R)-4,5-dihydroxy-1,2-dithiane-1,1-dioxide]	5	60	35	3	3	>1000	>1000	inhibits	not L	inhibits	> 1000	200 (≈ 36.8 µg/mL)	81	1300				
[O-][S+]1C[C@@H](O)[C@@H](O)CS1 (stereo partly drawn) [Compound 2]	> 50	> 100				>100					> 5000	800 (≈ 135 µg/mL)		4400				MIC (concentration needed to reach 15% inhibition) ([1]; transporter 28 5 μM, pre-incubation (P)): >50 µM
O=C1O[C@H]2CSS(=O)(=O)C[C@H]2O1 [Compound 11]			> 50	< 5	<5		>50						84		< 1	<1	> 50	IC50 ([1]; 1 h, read-out: IC50 (concentration needed to reach 50% inhibition), transporter 28 5 μM, co-incubation (C)): 70 ± 20 µM; IC15 ([2]; Homo sapiens, 1 h, pre-incubation (P)): 1.5 µM; IC50 ([2]; Homo sapiens, read-out: IC50 (concentration needed to reach 50% inhibition), transporter 31 10 μM, pre-incubation (P)): 9 µM; RV50 (concentration needed to lower relative viability by 50%) ([3]; with transporter 31, pre-incubation (P)): >20 µM
O=S1(=O)C=C[C@@H](O)CS1 [Compound 12]			7.2 ± 0.9	< 1	<1		>50	inhibit only cathepsin B	inhibit only cathepsin B	inhibit only cathepsin B					4.8	5	100	IC50 ([1]; read-out: IC50 (concentration needed to reach 50% inhibition), transporter 28 5 μM, co-incubation (C)): 60 µM; IC50 ([2]; read-out: IC50 (concentration needed to reach 50% inhibition), transporter 31 10 μM, co-incubation (C)): 7 µM
